Laboratory results taken from the OPERA property sets (Mansouri et al. 2018).

Row | Compound | logP
1 | CNc1nc(=O)cc(-c2ccc([N+](=O)[O-])o2)s1 | 0.86
2 | CN(N=Nc1ccc(C(N)=O)cc1)C(C)(C)C | 2.61
3 | Nc1ncnc2ccccc12 | 1.28
4 | COc1cc(C)ccc1N=C1NCCN1 | 1.64
5 | N#Cc1ccc2nccnc2c1 | 1.01
6 | O=NN(CCCl)C(=O)NC1CCCCC1O (configuration not stated) | 1.75
7 | CC(=O)C(C#N)=NNc1cccc(Cl)c1 | 3.9
8 | Clc1ccc(-c2ccc(Cl)c(Cl)c2Cl)c(Cl)c1 | 6.61
9 | CC(C)CC1=Nc2cc(Cl)ccc2S(=O)(=O)N1 | 2.35
10 | CCc1ccc2c(c1)C(c1ccccc1F)=NCC(=O)N2 | 2.92
11 | COC(=O)C(C#N)=NNc1ccc(Cl)c(C(F)F)c1 | 3.8
12 | COc1ccc(Cc2cnc(N)nc2N)cc1N | 0.76
13 | COC(=O)C(C#N)=NNc1ccc(SC(F)(F)F)cc1 | 4.3
14 | CN(C)/N=N/c1ccccc1C(=O)NC#N | 0.8
15 | CNC(=O)O/N=C/C(C)(C)S(C)(=O)=O | -0.57
16 | Cc1cnc(Cc2ccc(O)cc2)s1 | 2.62
17 | CCC(CC)(C(N)=O)c1ccc2c(c1)OCO2 | 1.59
18 | CNC(=O)NCCSCc1[nH]cnc1C | -0.06
19 | CS(=O)(=O)CCn1ccnc1[N+](=O)[O-] | -1.3
20 | COc1ccccc1C(=O)NCCCCN | 0.58
21 | [N-]=[N+]=CC(=O)NCC(=O)NCCO | -1.35
22 | O=C1OC(Cc2ccccc2)c2ccccc21 (configuration not stated) | 3.12

Row | Compound | logP
23 | CC(C)n1nnc2ccccc21 | 1.98
24 | CC(=O)N(C)c1c(I)c(C(=O)NCC(O)CO)c(I)c(C(=O)NCC(O)CO)c1I (configuration not stated) | -2.06
25 | O=S(=O)(Nc1ccccc1)c1cccc2cccnc12 | 1.75
26 | NNC(=O)NC1CCCCC1 | 0.15
27 | CC(C)=CC1C(C(=O)OCc2cccc([N+](=O)[O-])c2)C1(C)C (configuration not stated) | 5.2
28 | Cc1ccccc1C(=N)c1ccccc1 | 3.21
29 | CCc1cc(C(=O)NN)ccn1 | 0.12
30 | COc1ccccc1C(=O)NCCCN(C)C | 1.27
31 | O=[N+]([O-])c1nccn1CCOc1ccccc1 | 1.89
32 | C=CCN1C(=O)SC(=Cc2ccc([N+](=O)[O-])o2)C1=O | 2.22
33 | CS(=O)(=O)c1cccc(CC(=O)O)c1 | 0.06
34 | O=C(O)COc1cccc(S(F)(F)(F)(F)F)c1 | 2.78
35 | COC(=O)[C@@H]1[C@@H](C=C(C)C)C1(C)C | 3.76
36 | CNC1=NC(=O)C(=Cc2ccc([N+](=O)[O-])o2)S1 | 1.16
37 | CCC(=O)N(C)SN(C)C(=O)Oc1cccc2c1OC(C)(C)C2 | 3.2
38 | CNC(=O)ON=Cc1ccc(Cl)cc1 | 2.27
39 | COc1cc(-n2c(=O)cc(C)n2C)ncn1 | 0.3
40 | O=C1C=CC(=NO)c2ccccc21 | 2.27
41 | N#Cc1cccc(N2C(=O)CCC2=O)c1 | 0.02
42 | Cc1ccccc1N1C(=O)CCC1=O | 0.29
43 | COc1ccc(Cc2cnc(N)nc2N)cc1Cl | 1.65
44 | CCN(CC)CCCNC(=O)c1ccccc1 | 1.56

Row | Compound | logP
45 | CCCCN(SN(C)C(=O)Oc1cccc2c1OC(C)(C)C2)C(=O)OC | 4.6
46 | COP(=O)(Oc1cc(Cl)c(Br)cc1Cl)c1ccccc1 (configuration not stated) | 4.58
47 | ClC1C(Cl)C(Cl)C(I)C(Cl)C1Cl (configuration not stated) | 4.05
48 | CC(C)(C)c1nnc(N)o1 | 0.48
49 | COc1ccc(Cc2ccccc2C(N)=O)cc1 | 1.63
50 | COc1cc(CC(=O)O)ccc1OCC1CCCCC1 | 3.35
51 | COC1=C(C)C(=O)c2ccccc2C1=O | 2.14
52 | CC(=O)Nc1c(C)c(C)c(O)c(C)c1C | 0.95
53 | COP(=O)(OC)Oc1ccc([N+](=O)[O-])c(C)c1 | 1.69
54 | O=C(O)C1c2ccccc2Cc2ccccc21 | 2.78
55 | O=C(O)Cc1ccc(OCc2ccccc2)c(Br)c1 | 3.51
56 | O=S(=O)(Nc1cn[nH]c1)c1ccccc1 | 0.87
57 | CCCCc1nnc(N)o1 | 0.65
58 | N#CSc1ccccc1 | 2.54
59 | COC(=O)C1(n2ccnc2[N+](=O)[O-])CC(OC(C)=O)C(NC(C)=O)C(C(OC(C)=O)C(COC(C)=O)OC(C)=O)O1 (configuration not stated) | 0.41
60 | NC1CC2CC1c1ccccc12 (configuration not stated) | 2
61 | Cc1cc(C)cc(O[Si]23OCCN(CCO2)CCO3)c1 | 0.46
62 | CNC(=O)Oc1cccc(I)c1 | 2.52
63 | COc1ccc(Cc2cnc(N)nc2N)cc1OC | 0.97
64 | C=CCS(=O)(=O)c1cc(OC)c(OC)c(OC)c1 | 1.34
65 | CC1NCCN1CCO (configuration not stated) | -1.93
66 | CCCCCCCCCCOn1c(=O)[nH]c(C)c(Br)c1=O | 4.65

Row | Compound | logP
67 | CCOP(=S)(OCC)Oc1ccc(SC)cc1Cl | 4.4
68 | CCC1(CC)SCC(=O)NC1=O | 1.52
69 | CC(=O)c1ccc2c(c1)C(c1ccccc1F)=NCC(=O)N2 | 1.75
70 | O=C(CN1CCCCC1)Nc1ccccc1Cl | 2.76
71 | O=[N+]([O-])c1ccc(/C=C/c2nnc[nH]2)o1 | 1.1
72 | CNc1nnc(C(C)C)c(=O)n1N | 0.3
73 | CCN1C(=O)CN=C(c2ccccc2)c2cc(N)ccc21 | 1.81
74 | CSC(C)=NOC(=O)N(C)SN(C)C(=O)c1c(Cl)cccc1Cl | 2.6
75 | CN(C(=O)COc1ccccc1)c1ccccc1 | 2.25
76 | CN(C)CCCC(c1ccccc1)c1ccc(C(C)(C)C)cc1 (configuration not stated) | 5.72
77 | COC12C(COC(N)=O)C3=C(C(=O)C(C)=C(N)C3=O)N1CC1C2N1C(=O)Cc1ccccc1 (configuration not stated) | 1.15
78 | CCOC(=O)C(=Cc1ccc(Cl)cc1)C(=O)OCC | 3.96
79 | CCOP(=S)(OCC)SCS(=O)C(C)(C)C (configuration not stated) | 2.21
80 | CN1C(=Nc2ncc([N+](=O)[O-])s2)NCC1(C)C | 2.35
81 | CCN(CC)/N=N/c1nc[nH]c1C(N)=O | 0.78
82 | CC(=O)Nc1cc2c(cc1Cl)S(=O)(=O)NC(C)=N2 | 0.53
83 | O=C1O[C@@H](O)c2ccccc21 | 0.57
84 | N#Cc1c(N)sc2ccccc12 | 2.17
85 | O=NN(CCF)C(=O)NC1CSCSC1 | 1.54
86 | CN(N=O)C(=O)N(C)c1ccccc1 | 1.58
87 | Oc1ccc(C(c2ccncc2)c2ccc(O)cc2)cc1 | 3.24
88 | CCCCCCCC[n+]1ccc(C)cc1C.[I-] | -0.57

Row | Compound | logP
89 | COc1cc(Cc2cnc(N)nc2N)cc(OC)c1C(C)(C)O | 1.49
90 | COc1ncnc2ccccc12 | 1.97
91 | O=C(O)COc1cc(F)cc(Cl)c1 | 2.2
92 | CNP(=O)(OC)SC (configuration not stated) | -0.07
93 | CC(C)(C)C(=O)C(C#N)=NNc1cc(Cl)c(Cl)cc1Cl | 5.86
94 | N#Cc1cc(OCC(=O)O)ccc1Cl | 1.56
95 | Cn1c(C(C)(C)O)cnc1[N+](=O)[O-] | 0.43
96 | O=[N+]([O-])c1nccn1CC(O)COCC(F)(F)F (configuration not stated) | 0.52
97 | CN1CCN=C1Nc1ncc([N+](=O)[O-])s1 | 1.8
98 | CCC12CC3CC(N)(C1)CC(CC)(C3)C2 | 4.36
99 | O=[N+]([O-])c1nccnc1NCC(O)CO (configuration not stated) | -0.49
100 | CSC(C)=NOC(=O)N(C)SN(C)C(=O)OC(C)(C)C | 2.8
101 | CCCCNP(=O)(OC)Oc1cc(Cl)c(Cl)cc1Cl (configuration not stated) | 4.18
102 | O=[N+]([O-])C=Cc1ccc([N+](=O)[O-])cc1 | 1.89
103 | CS(=O)(=O)Oc1ccccc1Cc1cnc(N)nc1N | 0.71
104 | FC1C(Cl)C(Cl)C(Cl)C(Cl)C1Br (configuration not stated) | 3.28
105 | CNC(=O)ON=Cc1cccc(Oc2ccccc2)c1 | 3.12
106 | Nc1ccccc1OC1OC(CO)C(O)C(O)C1O (configuration not stated) | -1.23
107 | FC(F)(F)c1nc2c(Cl)ccc(Cl)c2[nH]1 | 2.87
